Patent publication US20220125053A1, “Pesticidal Mixtures” (BASF SE, priority 2019, published 2022)

Columns and labels:
[1] = tested on: Qoi resistant isolate of Septoria tritici; test: Microtest: activity against leaf blotch on wheat caused by Septoria tritici (SEPTTR), Qoi resistant isolate; type: cell-based; settings: single compound, 7 days after inoculation
Text: (§1) The active compounds were formulated separately as a stock solution having a concentration of 10000 ppm in dimethyl sulfoxide.
(§2) 2. Activity against leaf blotch on wheat caused by Septoria tritici (SEPTTR) The stock solutions were mixed according to the ratio, pipetted onto a micro titer plate (MTP) and diluted with water to the stated concentrations. A spore suspension of a Qoi resistant isolate of Septoria tritici in an aqueous biomalt or yeast-bactopeptone-glycerine or DOB solution was then added. The plates were placed in a water vapor-saturated chamber at a temperature of 18° C. Using an absorption photometer, the MTPs were measured at 405 nm 7 days after the inoculation.
(§3) The measured parameters were compared to the growth of the active compound-free control variant (100%) and the fungus-free blank value to determine the relative growth in % of the pathogens in the respective active compounds.
(§4) These percentages were converted into efficacies.
(§5) An efficacy of 0 means that the growth level of the pathogens corresponds to that of the untreated control; an efficacy of 100 means that the pathogens were not growing.
(§6) The expected efficacies of active compound mixtures were determined using Colby's formula [R. S. Colby, “Calculating synergistic and antagonistic responses of herbicide combinations”, Weeds 15, 20-22 (1967)] and compared with the observed efficacies.

Microdochium nivale = test: Microtest: activity against Microdochium nivale (MONGNI); type: cell-based; settings: single compound, 7 days after inoculation
Experimental: as §1
as §2, with “1.” for “2.”, “Microdochium nivale (MONGNI)” for “leaf blotch on wheat caused by Septoria tritici (SEPTTR)”, “Microdochium nivale” for “a Qoi resistant isolate of Septoria tritici”
as §3, §4, §5, §6

| Structure (SMILES) | Observed efficacy ([1]; 0.004 ppm) | Observed efficacy ([1]; 0.016 ppm) | Observed efficacy ([1]; 0.063 ppm) | Observed efficacy (Microdochium nivale; 0.063 ppm) | Observed efficacy (Microdochium nivale; 0.016 ppm) |
| --- | --- | --- | --- | --- | --- |
| CC(C)c1ccc(Cl)cc1CN(C(=O)c1c(C(F)F)nn(C)c1F)C1CC1 [Isoflucypram, N-(5-chloro-2-isopropylbenzyl)-N-cyclopropyl-3-(difluoromethyl)-5-fluoro-1-methyl-1H-pyrazole-4-carboxamide] | 0 | 5 | 34 | 40 |  |
| Cc1cccc(-n2nnn(C)c2=O)c1COc1ccn(-c2ccc(Cl)cc2)n1 [Metyltetraprol, 1-[2-[[1-(4-chlorophenyl)pyrazol-3-yl]oxymethyl]-3-methyl-phenyl]-4-methyl-tetrazol-5-one] |  | 0 | 1 |  | 32 |
